Assay results: patent US20260365670A1, “EGFR INHIBITORS AND USES THEREOF” (DIZAL (JIANGSU) PHARMACEUTICAL CO., LTD., priority 2022, published 2026)
Where two headings read alike, the source gives them in different places.

Tests used:
EGFR Exon19Del/T790M = molecular target: T1, EGFR Exon19Del/T790M (Homo sapiens, UniProt P00533, DEL746-750/T790M); assay: Inhibition of EGFR Exon19Del/T790M biochemical enzymatic activity (HTRF); conditions: EGFR Exon19Del/T790M, 1 mM ATP, 1 h at room temperature
T1 construct: purchased Carna Bio
In short: (§1)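 HTRF kinase assay: each EGFR enzyme phosphorylated 1 μM biotinylated TK substrate with 1 mM ATP in buffer containing 5 mM MgCl2, 1 mM MnCl2, 0.01% CHAPS, 1 mM DTT, 0.5% DMSO. After 1 h at room temperature, EDTA detection mix stopped the reaction. IC50 came from a four-parameter logistic fit of the 665/615 nm ratio.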

PC-9 = assay: Cell proliferation assay, PC-9 cells (CellTiter-Glo, 72 hours); format: cell-based; conditions: PC9 cells, read-out: GI50 PC9
In short: (§2)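 Cells are exposed to graded compound concentrations after overnight plating, using 500 PC-9 or 5000 Ba/F3 per well. Baseline-subtracted viability is compared with vehicle to give percent proliferation, then GI50.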

EGFR[T790M/C797S/L858R] = molecular target: T2, EGFR[T790M/C797S/L858R] (Homo sapiens, UniProt P00533, C797S/L858R/T790M); assay: Inhibition of EGFR[T790M/C797S/L858R] biochemical enzymatic activity (HTRF); conditions: EGFR[T790M/C797S/L858R], 1 mM ATP, 1 h at room temperature
T2 construct: purchased Carna Bio
T2 sequence (P00533 25-1210 T790M/C797S/L858R): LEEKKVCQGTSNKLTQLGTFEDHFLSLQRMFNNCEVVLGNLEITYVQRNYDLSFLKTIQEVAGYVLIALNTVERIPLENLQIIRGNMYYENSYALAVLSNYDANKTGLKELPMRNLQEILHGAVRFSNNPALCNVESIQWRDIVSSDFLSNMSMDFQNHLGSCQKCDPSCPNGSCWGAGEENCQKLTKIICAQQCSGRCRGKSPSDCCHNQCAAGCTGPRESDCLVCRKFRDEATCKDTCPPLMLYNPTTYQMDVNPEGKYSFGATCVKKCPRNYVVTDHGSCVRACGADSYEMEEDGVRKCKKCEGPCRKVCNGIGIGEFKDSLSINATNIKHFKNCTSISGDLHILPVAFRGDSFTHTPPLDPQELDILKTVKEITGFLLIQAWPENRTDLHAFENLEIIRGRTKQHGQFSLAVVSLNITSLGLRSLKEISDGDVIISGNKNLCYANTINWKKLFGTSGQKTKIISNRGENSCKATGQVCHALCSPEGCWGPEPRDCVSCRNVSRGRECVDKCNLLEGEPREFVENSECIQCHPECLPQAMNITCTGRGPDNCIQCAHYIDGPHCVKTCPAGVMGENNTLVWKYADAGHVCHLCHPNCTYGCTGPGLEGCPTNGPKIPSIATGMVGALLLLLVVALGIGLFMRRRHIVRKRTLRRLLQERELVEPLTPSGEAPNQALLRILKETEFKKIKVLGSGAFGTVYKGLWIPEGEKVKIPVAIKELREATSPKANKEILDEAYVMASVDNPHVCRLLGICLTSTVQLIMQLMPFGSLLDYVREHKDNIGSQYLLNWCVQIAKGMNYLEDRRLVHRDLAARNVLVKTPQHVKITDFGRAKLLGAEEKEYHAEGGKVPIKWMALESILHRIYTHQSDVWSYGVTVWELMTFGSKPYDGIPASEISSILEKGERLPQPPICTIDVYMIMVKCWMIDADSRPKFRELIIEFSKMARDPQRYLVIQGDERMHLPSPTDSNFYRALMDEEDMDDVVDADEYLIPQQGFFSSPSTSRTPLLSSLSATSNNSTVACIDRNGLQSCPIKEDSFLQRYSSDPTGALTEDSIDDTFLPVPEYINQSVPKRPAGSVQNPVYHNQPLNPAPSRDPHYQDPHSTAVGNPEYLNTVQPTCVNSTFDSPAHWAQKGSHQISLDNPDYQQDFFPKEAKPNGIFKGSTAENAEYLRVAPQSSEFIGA
In short: as §1

EGFR (C797S L858R) = molecular target: T3, EGFR (C797S L858R) (Homo sapiens, UniProt P00533, C797S/L858R); assay: Inhibition of EGFR (C797S L858R) biochemical enzymatic activity (HTRF); conditions: EGFR (C797S L858R), 1 mM ATP, 1 h at room temperature
T3 construct: purchased signalchem
In short: as §1

EGFR wild type = molecular target: T4, EGFR wild type (Homo sapiens, UniProt P00533); assay: Inhibition of EGFR wild type biochemical enzymatic activity (HTRF); conditions: EGFR wild type, 1 mM ATP, 1 h at room temperature
T4 construct: purchased Carna Bio
In short: as §1

EGFR Exon19Del = molecular target: T5, EGFR Exon19Del (Homo sapiens, UniProt P00533, DEL746-750); assay: Inhibition of EGFR Exon19Del biochemical enzymatic activity (HTRF); conditions: 1 mM ATP, 1 h at room temperature
T5 construct: purchased Carna Bio
In short: as §1

[1] = system: Ba/F3 cells expressing EGFR mutations; assay: Cell proliferation assay, Ba/F3 cells expressing EGFR mutations (CellTiter-Glo, 72 hours); format: cell-based
In short: as §2

EGFR (d746-750 C797S) = molecular target: T6, EGFR (d746-750 C797S) (Homo sapiens, UniProt P00533, C797S/DEL746-750); assay: Inhibition of EGFR (d746-750 C797S) biochemical enzymatic activity (HTRF); conditions: EGFR (d746-750 C797S), 1 mM ATP, 1 h at room temperature
T6 construct: purchased signalchem
T6 sequence (P00533 with tags, fused parts or gaps DEL746-750/C797S limits assumed): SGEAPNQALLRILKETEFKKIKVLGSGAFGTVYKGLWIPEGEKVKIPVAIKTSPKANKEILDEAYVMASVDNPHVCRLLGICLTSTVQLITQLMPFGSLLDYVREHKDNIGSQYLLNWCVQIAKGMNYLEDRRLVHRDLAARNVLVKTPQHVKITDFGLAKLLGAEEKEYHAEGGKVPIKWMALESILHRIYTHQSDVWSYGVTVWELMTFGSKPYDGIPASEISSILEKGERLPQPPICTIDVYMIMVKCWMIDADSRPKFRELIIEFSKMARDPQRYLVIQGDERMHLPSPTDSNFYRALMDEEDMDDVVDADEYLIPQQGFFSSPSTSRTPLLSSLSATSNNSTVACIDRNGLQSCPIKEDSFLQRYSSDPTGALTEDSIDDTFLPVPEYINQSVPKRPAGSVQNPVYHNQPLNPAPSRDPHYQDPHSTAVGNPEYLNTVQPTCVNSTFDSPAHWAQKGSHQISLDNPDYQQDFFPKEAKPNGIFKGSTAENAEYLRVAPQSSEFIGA
In short: as §1

EGFR L858R/T790M = molecular target: T7, EGFR L858R/T790M (Homo sapiens, UniProt P00533, L858R/T790M); assay: Inhibition of EGFR L858R/T790M biochemical enzymatic activity (HTRF); conditions: EGFR L858R/T790M, 1 mM ATP, 1 h at room temperature
T7 construct: purchased Carna Bio
T7 sequence (P00533 25-1210 T790M/L858R): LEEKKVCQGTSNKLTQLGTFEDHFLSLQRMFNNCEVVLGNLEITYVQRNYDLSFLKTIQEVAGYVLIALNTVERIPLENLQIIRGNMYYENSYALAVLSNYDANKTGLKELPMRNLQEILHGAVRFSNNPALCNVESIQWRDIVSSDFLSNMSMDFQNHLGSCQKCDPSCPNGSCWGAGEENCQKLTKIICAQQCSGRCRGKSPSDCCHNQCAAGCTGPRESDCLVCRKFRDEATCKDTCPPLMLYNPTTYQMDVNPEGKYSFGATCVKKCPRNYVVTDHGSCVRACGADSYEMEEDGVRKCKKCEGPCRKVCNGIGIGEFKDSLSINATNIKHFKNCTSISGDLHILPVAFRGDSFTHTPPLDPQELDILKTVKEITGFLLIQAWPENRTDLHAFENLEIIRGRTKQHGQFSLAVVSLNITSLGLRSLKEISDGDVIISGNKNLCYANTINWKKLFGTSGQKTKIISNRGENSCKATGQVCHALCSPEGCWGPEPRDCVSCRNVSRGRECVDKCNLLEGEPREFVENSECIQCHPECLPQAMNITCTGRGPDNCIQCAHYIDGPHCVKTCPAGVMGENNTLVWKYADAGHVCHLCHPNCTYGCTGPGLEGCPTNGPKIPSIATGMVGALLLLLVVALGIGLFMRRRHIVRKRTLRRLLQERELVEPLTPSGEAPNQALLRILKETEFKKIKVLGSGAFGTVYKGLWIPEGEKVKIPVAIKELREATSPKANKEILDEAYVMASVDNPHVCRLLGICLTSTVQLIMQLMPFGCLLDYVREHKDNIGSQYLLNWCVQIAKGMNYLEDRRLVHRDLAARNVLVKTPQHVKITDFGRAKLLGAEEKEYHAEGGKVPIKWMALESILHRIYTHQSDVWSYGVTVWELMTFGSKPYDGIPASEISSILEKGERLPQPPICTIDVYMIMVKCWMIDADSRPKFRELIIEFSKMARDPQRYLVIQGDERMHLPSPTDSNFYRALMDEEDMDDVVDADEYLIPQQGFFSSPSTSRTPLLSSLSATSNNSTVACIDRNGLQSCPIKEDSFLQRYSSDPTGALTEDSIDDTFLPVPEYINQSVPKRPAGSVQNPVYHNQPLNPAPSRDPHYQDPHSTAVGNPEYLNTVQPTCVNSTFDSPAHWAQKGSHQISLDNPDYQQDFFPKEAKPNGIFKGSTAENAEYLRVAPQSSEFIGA
In short: as §1

[2] = molecular target: T8, EGFR[T790M/C797S/d746-750] (Homo sapiens, UniProt P00533, C797S/DEL746-750/T790M); assay: Inhibition of EGFR[T790M/C797S/d746-750] biochemical enzymatic activity (HTRF); conditions: 1 mM ATP, 1 h at room temperature
T8 construct: purchased Carna Bio
T8 sequence (P00533 with tags, fused parts or gaps DEL746-750/T790M/C797S limits assumed): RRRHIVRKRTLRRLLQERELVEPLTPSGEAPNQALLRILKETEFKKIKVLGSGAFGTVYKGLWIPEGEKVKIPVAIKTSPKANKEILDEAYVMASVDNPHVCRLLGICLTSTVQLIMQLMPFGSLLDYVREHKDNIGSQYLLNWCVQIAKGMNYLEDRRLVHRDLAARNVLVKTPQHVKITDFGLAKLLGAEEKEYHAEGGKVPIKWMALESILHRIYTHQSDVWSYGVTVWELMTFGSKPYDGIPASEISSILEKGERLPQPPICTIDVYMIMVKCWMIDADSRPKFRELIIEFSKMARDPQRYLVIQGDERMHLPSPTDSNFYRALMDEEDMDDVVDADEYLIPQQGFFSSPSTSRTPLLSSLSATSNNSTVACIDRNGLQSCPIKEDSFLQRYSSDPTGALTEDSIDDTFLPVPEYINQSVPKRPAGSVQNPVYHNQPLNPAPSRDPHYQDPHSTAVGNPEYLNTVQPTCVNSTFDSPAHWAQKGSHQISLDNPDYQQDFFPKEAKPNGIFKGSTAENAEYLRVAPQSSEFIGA
In short: as §1

EGFR L858R = molecular target: T9, EGFR L858R (Homo sapiens, UniProt P00533, L858R); assay: Inhibition of EGFR L858R biochemical enzymatic activity (HTRF); conditions: 1 mM ATP, 1 h at room temperature
T9 construct: purchased Carna Bio
T9 sequence (P00533 25-1210 L858R): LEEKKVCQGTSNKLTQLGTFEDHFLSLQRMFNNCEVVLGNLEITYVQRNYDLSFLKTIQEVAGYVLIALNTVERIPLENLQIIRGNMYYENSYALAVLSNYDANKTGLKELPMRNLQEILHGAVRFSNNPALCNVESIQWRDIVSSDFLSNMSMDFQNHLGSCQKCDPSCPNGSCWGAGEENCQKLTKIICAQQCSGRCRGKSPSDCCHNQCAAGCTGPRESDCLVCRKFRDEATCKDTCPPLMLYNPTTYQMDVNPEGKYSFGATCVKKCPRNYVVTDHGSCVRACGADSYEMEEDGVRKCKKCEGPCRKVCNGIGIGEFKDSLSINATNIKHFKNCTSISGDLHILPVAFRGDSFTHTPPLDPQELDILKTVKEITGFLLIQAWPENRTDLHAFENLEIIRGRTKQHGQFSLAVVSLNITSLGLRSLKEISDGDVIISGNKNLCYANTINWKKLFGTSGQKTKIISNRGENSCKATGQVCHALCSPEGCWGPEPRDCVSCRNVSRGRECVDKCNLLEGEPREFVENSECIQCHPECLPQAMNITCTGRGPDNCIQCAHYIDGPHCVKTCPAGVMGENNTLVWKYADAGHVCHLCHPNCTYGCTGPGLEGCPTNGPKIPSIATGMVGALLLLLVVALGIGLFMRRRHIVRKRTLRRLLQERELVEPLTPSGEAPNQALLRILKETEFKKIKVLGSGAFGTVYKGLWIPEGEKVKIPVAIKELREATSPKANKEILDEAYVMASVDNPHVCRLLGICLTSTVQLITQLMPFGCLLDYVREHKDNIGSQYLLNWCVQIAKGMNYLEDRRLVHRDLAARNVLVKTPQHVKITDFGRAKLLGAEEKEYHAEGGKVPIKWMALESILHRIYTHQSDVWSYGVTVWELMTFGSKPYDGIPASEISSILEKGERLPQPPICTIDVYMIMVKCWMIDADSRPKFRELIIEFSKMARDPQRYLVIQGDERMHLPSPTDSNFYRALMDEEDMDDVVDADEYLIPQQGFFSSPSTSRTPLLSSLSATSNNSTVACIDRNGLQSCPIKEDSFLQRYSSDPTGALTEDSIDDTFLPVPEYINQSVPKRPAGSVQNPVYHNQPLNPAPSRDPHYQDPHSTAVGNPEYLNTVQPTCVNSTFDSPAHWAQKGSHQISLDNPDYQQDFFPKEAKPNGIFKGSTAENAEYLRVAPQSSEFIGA
In short: as §1

[3] = read-out: IC50 @T790M- C797S - L858R
[4] = EGFR Exon19Del, read-out: IC50 @Del19
[5] = BaF3 cells, EGFR DEL19 - C797S, read-out: GI50 DEL19 - C797S/BaF3
[6] = BaF3 cells, EGFR DEL19 - T790-C797S, read-out: GI50 DEL19 - T790-C797S/BaF3
[7] = BaF3 cells, EGFR L858R - C797S, read-out: GI50 L858R - C797S/BaF3
[8] = BaF3 cells, EGFR L858R - T790-C797S, read-out: GI50 L858R - T790-C797S/BaF3
[9] = BaF3 cells, EGFR L858R - T790M, read-out: GI50 L858R - T790M/BaF3
[10] = BaF3 cells, EGFR L858R, read-out: GI50 L858R/BaF3
[11] = EGFR DEL19 - T790M, read-out: GI50 DEL19 - T790M
[12] = EGFR[T790M/C797S/d746-750], read-out: IC50 @T790M - C797S - Del19

| SMILES | IC50 (EGFR Exon19Del/T790M; read-out: IC50 @Del19-T790M) [nM] | GI50 (PC-9) [nM] | IC50 (EGFR[T790M/C797S/L858R]; [3]) [nM] | IC50 (EGFR (C797S L858R); read-out: IC50 @L858-C797S) [nM] | IC50 (EGFR wild type; read-out: IC50 @WT) [nM] | IC50 (EGFR Exon19Del; [4]) [nM] | GI50 [1, 5] [nM] | GI50 [1, 6] [nM] | GI50 [1, 7] [nM] | GI50 [1, 8] [nM] | GI50 [1, 9] [nM] | GI50 [1, 10] [nM] | GI50 [1, 11] [nM] | IC50 (EGFR (d746-750 C797S); read-out: IC50 @Del19-C797S) [nM] | IC50 (EGFR L858R/T790M; read-out: IC50 @L858R-T790M) [nM] | IC50 [2, 12] [nM] | IC50 (EGFR L858R; read-out: IC50 @L858R) [nM] | also measured |
| --- | --- | --- | --- | --- | --- | --- | --- | --- | --- | --- | --- | --- | --- | --- | --- | --- | --- | --- |
| Cc1cc2cc(n1)-c1cnn(C)c1OCCN1CC3CCC(C3)(C1)n1c(nc3ccc(N4CC[C@@H](N(C)C)C4)cc31)NC2=O (single isomer, unassigned) [Example B42A] | 2480 | 1590 | > 5000 | > 5000 | > 5000 | > 5000 | 865 | 476 | 602 | 75 | 354 | 1770 | 468 | > 5000 | > 5000 | 1080 | > 5000 | – |
| Cc1cc2cc(n1)-c1cnn(C)c1OCCN1CC3CCC(C3)(C1)n1c(nc3ccc(N4CCN(C(C)C)CC4)cc31)NC2=O (single isomer, unassigned) [Example B57A] | 1770 | 941 | > 5000 | > 5000 | > 5000 | > 5000 | 208 | 428 | 829 | 147 | 324 | 2000 | 612 | > 5000 | > 5000 | 792 | > 5000 | – |
| Cc1cc2cc(n1)-c1cnn(C)c1OCCN1CC3CCC(C3)(C1)n1c(nc3ccc(N4CCC(N(C)C)CC4)cc31)NC2=O (single isomer, unassigned) [Example B40A, 5-[4-(dimethylamino)piperidin-1-yl]-15,21-dimethyl-23-oxa-2,9,11,16,20,21,26-heptaazaheptacyclo[24.4.1.1^{1,28}.1^{13,17}.0^{2,10}.0^{3,8}.0^{18,22}]tritriaconta-3,5,7,9,13,15,17(33),18(22),19-nonaen-12-one] | – | 950 | – | – | – | – | 212 | 164 | 312 | 41 | 194 | 877 | 258 | – | – | – | – | IC50 (EGFR Exon19Del/T790M; IC50 @Del19-T790M): 430 nM; IC50 (EGFR[T790M/C797S/L858R]; IC50 @T790M- C797S - L858R): > 5000 nM; IC50 (EGFR (C797S L858R); IC50 @L858-C797S): > 5000 nM; IC50 (EGFR wild type; IC50 @WT): > 5000 nM; IC50 (EGFR Exon19Del; IC50 @Del19, EGFR Exon19Del): > 5000 nM; IC50 (EGFR (d746-750 C797S); IC50 @Del19-C797S): 2480 nM; IC50 (EGFR L858R/T790M; IC50 @L858R-T790M): > 5000 nM; IC50 ([2]; IC50 @T790M - C797S - Del19, EGFR[T790M/C797S/d746-750]): 123 nM; IC50 (EGFR L858R; IC50 @L858R): > 5000 nM |
